Earlier results, collected in US20110212192A1, “INGESTIBLES CONTAINING SUGAR AND CINNAMON OR GINSENG” (ALLEGIANCE EQUITY CORPORATION, priority 2008, published 2011).

Experiments:
Details in all cases: immunoblotting; mouse 3T3-L1 adipocytes
[1] = system: tristetraprolin (TTP)
[2] = system: glucose transporter 4 (GLUT4)
[3] = system: insulin receptor (IR)

insulin
increased: level of tristetraprolin (TTP) protein [1] | level of glucose transporter 4 (GLUT4) protein [2] | level of insulin receptor (IR) protein [3]
